In patent US20230027075A1, “SULFONAMIDE COMPOUNDS TARGETING CD73 AND ADENOSINE RECEPTORS” (Aurigene Discovery Technologies Limited, priority 2019, published 2023) one finds inhibition and IC50 data, which are given here for eight compounds.

Assay [1] addresses T1, human-CD73 (Trp27-Lys547, His-tag) (Homo sapiens, UniProt P21589).
T1 construct: human-CD73 (Trp27-Lys547, His-tag); His-tag
T1 sequence (P21589 27-547): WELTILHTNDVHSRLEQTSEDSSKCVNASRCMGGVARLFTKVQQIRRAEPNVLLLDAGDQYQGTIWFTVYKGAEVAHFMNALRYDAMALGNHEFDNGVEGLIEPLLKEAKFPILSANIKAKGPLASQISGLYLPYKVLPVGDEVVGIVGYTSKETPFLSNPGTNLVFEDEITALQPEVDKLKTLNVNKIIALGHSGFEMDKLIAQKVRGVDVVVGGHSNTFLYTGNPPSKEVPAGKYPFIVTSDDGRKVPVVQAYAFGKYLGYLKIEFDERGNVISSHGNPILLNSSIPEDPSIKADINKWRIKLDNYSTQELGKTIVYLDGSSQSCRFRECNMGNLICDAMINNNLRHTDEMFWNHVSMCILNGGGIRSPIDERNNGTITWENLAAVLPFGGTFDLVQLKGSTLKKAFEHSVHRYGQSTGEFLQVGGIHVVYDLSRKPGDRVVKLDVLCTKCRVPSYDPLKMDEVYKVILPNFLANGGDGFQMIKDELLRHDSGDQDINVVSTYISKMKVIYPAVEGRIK
The assay is described as follows: CD73 biochemical assay (colorimetric, Malachite Green phosphate detection). Particulars: 2 nM CD73, 50 μM AMP; for inhibition at 20 µM: 20 μM compound, read-out: % inhibition at 20 μM (Percent inhibition data in CD73); for IC50: four-parameter curve fit, read-out: Potency (IC50 values) of selected compounds in CD73, group. How it is done:
A colorimetric-based method was used for assaying compounds of the invention for CD73 enzyme inhibitory activity. Human CD73 catalyzes the conversion of AMP to adenosine with the release of orthophosphate. A Malachite Green Phosphate Detection kit is used to measure the formation of orthophosphate product. […] A compound of the present invention and enzyme are incubated for 30 minutes at room temperature. Next, 20 μL of AMP in assay buffer is added to the plate. The final concentration of CD73 and AMP are 2 nM and 50 μM respectively. Following 30 minutes reaction at room temperature, 20 μL of Malachite reagent is added to all the reaction wells. The formation of green complex formed between Malachite Green, molybdate and free orthophosphate is measured on a plate reader (620 nm).

The target of assay [2] is T2, A2aR (Homo sapiens, UniProt P29274).
T2 construct: expressed in transfected cells
Description: A2aR biochemical assay (TR-FRET binding, Tag-lite A2aR labelled cells, fluorescent antagonist). Particulars: 10 nM fluorescent A2aR antagonist; for inhibition at 20 µM: 20 μM compound, vs DMSO control, read-out: % inhibition at 20 μM (Percent inhibition data in A2aR); for IC50: four-parameter curve fit, read-out: Potency (IC50 values) of selected compounds in A2aR, group. How it is done:
The compounds of present invention were assayed for A2aR enzyme binding activity in a TR-FRET based method. Typically, 10 μL of A2aR labelled cells in assay buffer (Tag-lite, 1×) is added to a 384-well plate containing 5 μL of a compound of present invention in final 1% DMSO, serially diluted in 1:5 in a 5-6 point titration. The aforesaid compound and cells are incubated for 30 minutes at room temperature. Next, 5 μL of A2aR antagonist (fluorescent ligand) in assay buffer is added to the plate. The final concentration of A2aR antagonist is 10 nM. Following 30 minutes reaction at room temperature, the plate was read on a plate reader (Ex: 340 nm Em: 615 nm and 665 nm) to measure the binding of test compound to A2aR cells. The results are interpreted as percentage inhibition as presented in Table-2A of binding by the test compound with respect to the DMSO control.
(In general: Time-resolved FRET reads energy transfer from a long-lived donor to a nearby acceptor.)

The structures appear in SMILES notation.

By inhibition is commonly meant the drop in the measured response relative to a control, in per cent. What is called IC50 is the point on the concentration scale where inhibition reaches its midpoint.

T2 sequence (P29274 whole entry): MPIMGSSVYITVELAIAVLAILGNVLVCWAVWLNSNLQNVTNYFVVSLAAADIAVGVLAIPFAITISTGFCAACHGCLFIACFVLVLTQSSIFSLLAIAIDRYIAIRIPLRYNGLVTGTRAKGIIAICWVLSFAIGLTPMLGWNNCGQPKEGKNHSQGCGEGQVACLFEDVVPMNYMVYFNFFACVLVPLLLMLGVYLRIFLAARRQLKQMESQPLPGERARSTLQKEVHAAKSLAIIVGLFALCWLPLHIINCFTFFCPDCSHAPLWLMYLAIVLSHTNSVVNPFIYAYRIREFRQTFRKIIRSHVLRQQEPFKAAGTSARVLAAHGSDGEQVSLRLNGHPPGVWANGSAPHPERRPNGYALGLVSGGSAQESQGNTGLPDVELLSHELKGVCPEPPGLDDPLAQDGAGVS

Take `COC(=O)[C@@H](NC(=O)Oc1c(Cl)cc(S(=O)(=O)Nc2ccc(CCCNc3nc(N)n4nc(-c5ccco5)nc4n3)cc2)cc1C(N)=O)C(C)C` [Example A25, Methyl ((4-(N-(4-(3-((7-amino-2-(furan-2-yl)-[1,2,4]triazolo[1,5-a][1,3,5]triazin-5-yl)amino)propyl)phenyl)sulfamoyl)-2-carbamoyl-6-chlorophenoxy)carbonyl)valinate]: in assay [1], the inhibition at 20 µM was determined as 99% and the IC50 was under 100 nM. Further, the inhibition at 20 µM in assay [2] amounted to 81%.

As for `Nc1nc(NCCCc2ccc(NS(=O)(=O)c3cc(Cl)c4oc(=O)[nH]c(=O)c4c3)cc2)nc2nc(-c3ccco3)nn12` [Example B4, N-(4-(3-((7-amino-2-(furan-2-yl)-[1,2,4]triazolo[1,5-a][1,3,5]triazin-5-yl)amino)propyl)phenyl)-8-chloro-2,4-dioxo-3,4-dihydro-2H-benzo[e][1,3]oxazine-6-sulfonamide], the inhibition at 20 µM was 99% in assay [1] and 86% in assay [2].

For the compound `CC(=O)Nc1nc(NCCc2ccc(NS(=O)(=O)c3cc(Cl)c(O)c(C(N)=O)c3)cc2)nc2nc(-c3ccco3)nn12` [Example A8, 5-(N-(4-(2-((7-acetamido-2-(furan-2-yl)-[1,2,4]triazolo[1,5-a][1,3,5]triazin-5-yl)amino)ethyl)phenyl)sulfamoyl)-3-chloro-2-hydroxybenzamide], the inhibition at 20 µM came to 70% in assay [1] and 81% in assay [2].

On to `NC(=O)c1cc(S(=O)(=O)Nc2ccc(CCCNc3cc4nc(-c5ccco5)nn4c(N)n3)cc2)cc(Cl)c1O` [Example A19, 5-(N-(4-(3-((5-amino-2-(furan-2-yl)-[1,2,4]triazolo[1,5-c]pyrimidin-7-yl)amino)propyl)phenyl)sulfamoyl)-3-chloro-2-hydroxybenzamide], for which, in assay [1], the inhibition at 20 µM came to 96% and the half-maximal inhibitory concentration (IC50) was over 1000 nM. Further, the inhibition at 20 µM in assay [2] worked out at 83%.

Turning to `NC(=O)c1cc(S(=O)(=O)Nc2ccc(CCCOc3cc(N)n4nc(-c5ccco5)nc4n3)cc2)cc(Cl)c1O` [Example A21, 5-(N-(4-(3-((7-amino-2-(furan-2-yl)-[1,2,4]triazolo[1,5-a]pyrimidin-5-yl)oxy)propyl)phenyl)sulfamoyl)-3-chloro-2-hydroxybenzamide], in assay [1], the inhibition at 20 µM came out at 98% and the IC50 fell in the range of 110 to 1000 nM. Further, the inhibition at 20 µM in assay [2] is 82%.

Take `NC(=O)c1cc(S(=O)(=O)Nc2ccc(CCNc3nc(N)n4nc(-c5ccco5)nc4n3)c(O)c2)cc(Cl)c1O` [Example A5, 5-(N-(4-(2-((7-amino-2-(furan-2-yl)-[1,2,4]triazolo[1,5-a][1,3,5]triazin-5-yl)amino)ethyl)-3-hydroxyphenyl)sulfamoyl)-3-chloro-2-hydroxybenzamide]: in assay [1], the inhibition at 20 µM was determined as 99% and the concentration for half-maximal inhibition (IC50) lay in the range of 110 to 1000 nM. In assay [2], the inhibition at 20 µM was found to be 84% and the IC50 is under 25 nM.

On to `NC(=O)c1cc(S(=O)(=O)Nc2cccc(NCCNc3nc(N)n4nc(-c5ccco5)nc4n3)c2)cc(Cl)c1O` [Example C2, 5-(N-(3-((2-((7-amino-2-(furan-2-yl)-[1,2,4]triazolo[1,5-a][1,3,5]triazin-5-yl)amino)ethyl)amino)phenyl)sulfamoyl)-3-chloro-2-hydroxybenzamide], for which, in assay [2], the inhibition at 20 µM is 85%.

On to `NC(=O)c1cc(S(=O)(=O)Nc2ccc(CCCNc3cc(N)n4nc(-c5ccco5)nc4n3)cc2F)cc(Cl)c1O` [Example A23, 5-(N-(4-(3-((7-amino-2-(furan-2-yl)-[1,2,4]triazolo[1,5-a]pyrimidin-5-yl)amino)propyl)-2-fluorophenyl)sulfamoyl)-3-chloro-2-hydroxybenzamide], for which, in assay [2], the inhibition at 20 µM turned out to be 78% and the half-inhibitory concentration (IC50) was over 50 nM.
